The test system of series [1] is L-type channel of the Cav1.2 protein. As to conditions: cited from earlier work.
In series [2] the test system is neuronal induced pluripotent stem cells (iPSCs) derived from TS patients. As to conditions: TS patient iPSC-derived neuronal cells; cited from earlier work.
For series [3] the following is noted: verapamil: particularly in males; cited from earlier work.
The conditions of series [4]: clinical use; cited from earlier work.
Series [5] has as its system patient with TS Type 2. The series is described as follows: Case report: treatment of a patient with Timothy Syndrome type 2 and bipolar disorder. It is filed as in vivo, human. The text has this:
The patient is a person with TS Type 2 (see below) diagnosed in childhood. The patient was referred for research evaluation after diagnosis of BD by one of us (FO). This was confirmed by interview with the patient and their parent, using the Diagnostic Interview for Genetic Studies (DIGS), version 3.0.
Ten months after starting the medication, they were referred to a neurologist, who found depression and prescribed citalopram.
They were restarted on their antidepressant and has been stable for the three years of observation since then. We note that this is not a typical course of BD, and that further observation will be needed to fully define their course.

Setting [6] is: verapamil at 250 mg/d, TS patient.

Each structure is given as a SMILES string.

For the molecule `CC[C@H](CO)Nc1nc(NCc2ccccc2)c2ncn(C(C)C)c2n1` [roscovitine], the “inactivation of the L-type channel” value in series [1] is “enhanced (normalized)”. For the same molecule, in series [2], the “reduction in the proportion of TH-positive neurons” value was 68% and the “reversal of excess expression of TH” value is reported as “succeeds in reversing”.

For `COC(=O)C1=C(C)NC(C)=C(C(=O)OCCN(C)Cc2ccccc2)C1c1cccc([N+](=O)[O-])c1` (stereo not drawn) [Nicardipine], the “penetration into the brain / crossing of the blood-brain barrier” value in series [3] is “satisfactorily crosses”. Also, the common side effects result in series [4] is “headache, peripheral edema, dizziness, flushing, asthenia, angina, hypotension, nausea/vomiting, tachycardia, and palpitations”.

Take `COc1ccc(CCN(C)CCCC(C#N)(c2ccc(OC)c(OC)c2)C(C)C)cc1OC` (stereo not drawn) [verapamil]: in series [5] (setting [6]), the QT interval entry is “no change”, the “episodes of atrial fibrillation” value was “continued to have some episodes” and the “number of ventricular fibrillation episodes” value is recorded as “marked decrease”.

For the molecule `[Li]` [Lithium], the tolerability entry in series [5] (given for mood stabilization, complaints of increased lethargy and irritability) is “not well tolerated”.
